Laboratory results published in ChEMBL document CHEMBL6087481, “Interleukin-1 Receptor-Associated Kinase 4 (IRAK4) Degraders for Treating Inflammatory Diseases: Advances and Prospects” (J Med Chem, 2025).

How the values were obtained:
[1] = target: T1, Interleukin-1 receptor-associated kinase 4 (Homo sapiens, UniProt Q9NWZ3); test: Inhibition of IRAK4 (unknown origin)
T1 sequence (Q9NWZ3 whole entry): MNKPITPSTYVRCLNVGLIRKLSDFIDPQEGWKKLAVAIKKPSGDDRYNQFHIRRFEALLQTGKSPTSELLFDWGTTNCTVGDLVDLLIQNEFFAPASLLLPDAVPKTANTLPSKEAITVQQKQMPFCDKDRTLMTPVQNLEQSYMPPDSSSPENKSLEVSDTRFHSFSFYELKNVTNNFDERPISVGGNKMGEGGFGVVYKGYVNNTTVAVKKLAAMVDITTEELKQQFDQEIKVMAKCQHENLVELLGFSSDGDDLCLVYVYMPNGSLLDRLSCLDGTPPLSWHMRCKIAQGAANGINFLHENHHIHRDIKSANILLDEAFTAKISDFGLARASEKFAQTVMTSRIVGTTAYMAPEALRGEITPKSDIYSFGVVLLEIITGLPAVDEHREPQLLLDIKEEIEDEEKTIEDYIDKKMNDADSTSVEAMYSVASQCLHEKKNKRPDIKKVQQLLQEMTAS

[2] = target: T2, Protein cereblon/Interleukin-1 receptor-associated kinase 4 (Mus musculus, UniProt Q8C7D2+Q8R4K2); test: PROTAC activity at IRAK4/CRBN in mouse RAW264.7 cells assessed as reduction in IRAK4 level incubated for 12 hrs by Western blot analysis; assay type: cell-based
T2 sequence (Q8C7D2 whole entry): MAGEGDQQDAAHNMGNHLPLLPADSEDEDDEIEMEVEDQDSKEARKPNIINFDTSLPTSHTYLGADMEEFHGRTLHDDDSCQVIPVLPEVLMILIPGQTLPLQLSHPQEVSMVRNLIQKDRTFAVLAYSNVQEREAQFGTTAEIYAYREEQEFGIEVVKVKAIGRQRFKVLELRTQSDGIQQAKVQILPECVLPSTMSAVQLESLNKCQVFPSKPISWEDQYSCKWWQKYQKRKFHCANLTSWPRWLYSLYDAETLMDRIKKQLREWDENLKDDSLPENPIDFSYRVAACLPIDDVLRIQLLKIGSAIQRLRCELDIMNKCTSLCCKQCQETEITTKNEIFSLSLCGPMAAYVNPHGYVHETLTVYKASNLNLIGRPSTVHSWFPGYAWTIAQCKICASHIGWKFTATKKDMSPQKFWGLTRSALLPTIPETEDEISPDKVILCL
T2 sequence (Q8R4K2 whole entry): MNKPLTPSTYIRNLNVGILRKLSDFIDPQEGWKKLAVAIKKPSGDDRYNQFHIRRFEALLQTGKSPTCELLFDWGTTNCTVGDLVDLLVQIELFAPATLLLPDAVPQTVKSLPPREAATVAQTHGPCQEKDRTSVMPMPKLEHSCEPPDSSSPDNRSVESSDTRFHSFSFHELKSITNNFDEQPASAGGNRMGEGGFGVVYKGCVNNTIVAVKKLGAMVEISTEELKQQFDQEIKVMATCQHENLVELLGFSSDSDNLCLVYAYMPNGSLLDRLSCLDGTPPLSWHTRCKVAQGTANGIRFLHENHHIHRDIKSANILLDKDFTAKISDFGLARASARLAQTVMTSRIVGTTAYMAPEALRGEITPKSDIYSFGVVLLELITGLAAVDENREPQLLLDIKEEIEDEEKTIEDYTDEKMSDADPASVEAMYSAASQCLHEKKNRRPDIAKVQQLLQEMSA

[3] = target: von Hippel-Lindau disease tumor suppressor/Interleukin-1 receptor-associated kinase 4 (Homo sapiens, UniProt Q9NWZ3+P40337); test: PROTAC activity at VHL/IRAK4 in human HEK293T cells assessed as IRAK4 degradation measured after 24 hrs by immunoblotting analysis; assay type: cell-based
Sequence of von Hippel-Lindau disease tumor suppressor/Interleukin-1 receptor-associated kinase 4 (P40337 whole entry, one chain of several): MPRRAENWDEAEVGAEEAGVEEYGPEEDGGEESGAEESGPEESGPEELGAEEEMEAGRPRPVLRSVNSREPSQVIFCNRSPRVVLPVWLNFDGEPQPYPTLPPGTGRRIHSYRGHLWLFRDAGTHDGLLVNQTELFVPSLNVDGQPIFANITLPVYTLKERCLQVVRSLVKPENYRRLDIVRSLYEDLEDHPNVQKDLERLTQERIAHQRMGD

## CC(C)Nc1cc(-n2ccc3cc(C#N)cnc32)ncc1C(=O)N[C@H]1CC[C@H](C(=O)NC2CC2)CC1
[1]
  IC50: 3 nM

## COc1cc(N2CCN(C(=O)CCOCC#Cc3ccc4c(c3)C(=O)N(C3CCC(=O)NC3=O)C4=O)CC2)ccc1NC(=O)c1cccc(-c2ccn[nH]2)n1 (stereo not drawn)
[2]
  DC50: 47.3 nM

## CC(C)Nc1cc(-n2ccc3cc(C#N)cnc32)ncc1C(=O)N[C@H]1CC[C@H](C(=O)NCCOCCNC(=O)Oc2cccc3c2C(=O)N(C2CCC(=O)NC2=O)C3=O)CC1 (stereo partly drawn)
[3]
  DC50: 405 nM
